Test system: barnyardgrass
Assay: Test Example 1: foliage treatment, upland pot test
Format: in vivo, Echinochloa crus-galli L.
Conditions: active ingredient 500 g/ha, observed 18th to 23rd day, 0 = non-treated, 100 = complete kill
Outline: (§1)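 Applied as a post-emergence foliar spray: formulated compound diluted to 500 L/ha with spreader at 0.1% (v/v). Treatment timing—rice at 1.2–2.6, wheat at 1.3–2.4, barnyardgrass at 1.3–2.8, soybean at 0.1–0.4 leaf stage. Scored visually on a 0–100% control scale after 18–23 days.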

| SMILES | Growth controlling degree (%) Barnyardgrass |
| --- | --- |
| CC(C)C(c1cnccc1C(F)(F)F)N(C)C(=O)Cc1ccc(C(F)(F)F)c(F)c1 (stereo not shown) [I-62] | 20% |

Test system: velvetleaf
Assay: Test Example 1: foliage treatment, upland pot test
Format: in vivo, Abutilon theophrasti MEDIC.
Conditions: active ingredient 500 g/ha, observed 18th to 23rd day, 0 = non-treated, 100 = complete kill

| SMILES | Growth controlling degree (%) Velvetleaf |
| --- | --- |
| CC(C)C(c1cnccc1C(F)(F)F)N(C)C(=O)Cc1ccc(C(F)(F)F)c(F)c1 (stereo not shown) [I-62] | 90% |

Test system: japanese bulrush
Assay: Test Example 3: paddy pot test, application under submerged conditions
Format: in vivo, Scirpus juncoides
Conditions: active ingredient 250 g/ha; submerged application at 0.5 leaf stage; visually observed 14 days after application; 0 = non-treated, 100 = complete kill
Outline: (§2)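 After sowing seeds and planting wapato tubers in flooded paddy soil, an aqueous dilution of the formulated compound was added to the 3–4 cm flood water at early leaf stage. Percent growth control relative to the untreated plot was assessed visually on day 14.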

| SMILES | Growth controlling degree (%) Japanese bulrush |
| --- | --- |
| CC(C)C(c1cnccc1C(F)(F)F)N(C)C(=O)Cc1ccc(C(F)(F)F)c(F)c1 (stereo not shown) [I-62] | 30% |

Test system: rice (var. Nihonbare)
Assay: Test Example 3: paddy pot test, transplanted rice
Format: in vivo, Oryza sativa L.
Conditions: active ingredient 250 g/ha, applied 4th day after transplantation, visually observed 21st day after application, 0 = non-treated, 100 = complete kill
Outline: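 Rice (2-leaf stage) was transplanted 3 cm deep into puddled, leveled paddy soil under 3–4 cm flooding. On day 4 after transplanting, diluted wettable powder or emulsifiable concentrate was pipetted onto the water at a predetermined active-ingredient dose. Growth control (0 = untreated, 100 = complete kill) was scored visually 21 days later.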

| SMILES | Growth controlling degree (%) Rice |
| --- | --- |
| CC(C)C(c1cnccc1C(F)(F)F)N(C)C(=O)Cc1ccc(C(F)(F)F)c(F)c1 (stereo not shown) [I-62] | 20% |

Test system: barnyardgrass
Assay: Test Example 3: paddy pot test, application under submerged conditions
Format: in vivo, Echinochloa crus-galli L.
Conditions: active ingredient 250 g/ha; submerged application at 0.5 leaf stage; visually observed 14 days after application; 0 = non-treated, 100 = complete kill
Outline: as §2

| SMILES | Growth controlling degree (%) Barnyardgrass |
| --- | --- |
| CC(C)C(c1cnccc1C(F)(F)F)N(C)C(=O)Cc1ccc(C(F)(F)F)c(F)c1 (stereo not shown) [I-62] | 98% |

Test system: prickly sida
Assay: Test Example 1: foliage treatment, upland pot test
Format: in vivo, Sida spinosa L.
Conditions: active ingredient 500 g/ha, observed 18th to 23rd day, 0 = non-treated, 100 = complete kill

| SMILES | Growth controlling degree (%) Prickly sida |
| --- | --- |
| CC(C)C(c1cnccc1C(F)(F)F)N(C)C(=O)Cc1ccc(C(F)(F)F)c(F)c1 (stereo not shown) [I-62] | 70% |

Test system: rice
Assay: Test Example 1: foliage treatment, upland pot test
Format: in vivo, Oryza sativa L.
Conditions: crop, active ingredient 500 g/ha, observed 18th to 23rd day, 0 = non-treated, 100 = complete kill
Outline: as §1

| SMILES | Growth controlling degree (%) Rice |
| --- | --- |
| CC(C)C(c1cnccc1C(F)(F)F)N(C)C(=O)Cc1ccc(C(F)(F)F)c(F)c1 (stereo not shown) [I-62] | 10% |

Test system: soybean
Assay: Test Example 2: soil surface treatment, upland pot test
Format: in vivo, Glycine max Merr.
Conditions: active ingredient 500 g/ha, observed 20th to 28th day
Outline: (§3)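 Upland soil in pots of 1/170,000 ha is sown; on day 1 after sowing the formulated compound (wettable powder or emulsifiable concentrate, predetermined a.i. amount, water volume 1,500 L/ha) is applied to the soil surface with a small sprayer. Percent control is judged by eye 20–28 days later.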

| SMILES | Growth controlling degree (%) Soyabean |
| --- | --- |
| CC(C)C(c1cnccc1C(F)(F)F)N(C)C(=O)Cc1ccc(C(F)(F)F)c(F)c1 (stereo not shown) [I-62] | 10% |

Test system: green foxtail
Assay: Test Example 1: foliage treatment, upland pot test
Format: in vivo, Setaria viridis L.
Conditions: active ingredient 500 g/ha, observed 18th to 23rd day, 0 = non-treated, 100 = complete kill

| SMILES | Growth controlling degree (%) Green foxtail |
| --- | --- |
| CC(C)C(c1cnccc1C(F)(F)F)N(C)C(=O)Cc1ccc(C(F)(F)F)c(F)c1 (stereo not shown) [I-62] | 40% |

Test system: prickly sida
Assay: Test Example 2: soil surface treatment, upland pot test
Format: in vivo, Sida spinosa L.
Conditions: active ingredient 500 g/ha, observed 20th to 28th day
Outline: as §3

| SMILES | Growth controlling degree (%) Prickly sida |
| --- | --- |
| CC(C)C(c1cnccc1C(F)(F)F)N(C)C(=O)Cc1ccc(C(F)(F)F)c(F)c1 (stereo not shown) [I-62] | 98% |

Test system: japanese ribbon wapato
Assay: Test Example 3: paddy pot test, application under submerged conditions
Format: in vivo, Sagittaria pygniaea
Conditions: active ingredient 250 g/ha; submerged application at primary leaf stage; visually observed 14 days after application; 0 = non-treated, 100 = complete kill
Outline: as §2

| SMILES | Growth controlling degree (%) Japanese ribbon wapato |
| --- | --- |
| CC(C)C(c1cnccc1C(F)(F)F)N(C)C(=O)Cc1ccc(C(F)(F)F)c(F)c1 (stereo not shown) [I-62] | 0% |

Test system: crabgrass
Assay: Test Example 2: soil surface treatment, upland pot test
Format: in vivo, Digitaria sanguinalis L.
Conditions: active ingredient 500 g/ha, observed 20th to 28th day
Outline: as §3

| SMILES | Growth controlling degree (%) Crabgrass |
| --- | --- |
| CC(C)C(c1cnccc1C(F)(F)F)N(C)C(=O)Cc1ccc(C(F)(F)F)c(F)c1 (stereo not shown) [I-62] | 98% |

Test system: barnyardgrass
Assay: as above
Format: in vivo, Echinochloa crus-galli L.
Conditions: active ingredient 500 g/ha, observed 20th to 28th day
Outline: as §3

| SMILES | Growth controlling degree (%) Barnyardgrass |
| --- | --- |
| CC(C)C(c1cnccc1C(F)(F)F)N(C)C(=O)Cc1ccc(C(F)(F)F)c(F)c1 (stereo not shown) [I-62] | 60% |

Test system: crabgrass
Assay: Test Example 1: foliage treatment, upland pot test
Format: in vivo, Digitaria sanguinalis L.
Conditions: active ingredient 500 g/ha, observed 18th to 23rd day, 0 = non-treated, 100 = complete kill

| SMILES | Growth controlling degree (%) Crabgrass |
| --- | --- |
| CC(C)C(c1cnccc1C(F)(F)F)N(C)C(=O)Cc1ccc(C(F)(F)F)c(F)c1 (stereo not shown) [I-62] | 60% |

Test system: green foxtail
Assay: Test Example 2: soil surface treatment, upland pot test
Format: in vivo, Setaria viridis L.
Conditions: active ingredient 500 g/ha, observed 20th to 28th day
Outline: as §3

| SMILES | Growth controlling degree (%) Green foxtail |
| --- | --- |
| CC(C)C(c1cnccc1C(F)(F)F)N(C)C(=O)Cc1ccc(C(F)(F)F)c(F)c1 (stereo not shown) [I-62] | 60% |

Test system: redroot pigweed
Assay: Test Example 1: foliage treatment, upland pot test
Format: in vivo, Amaranthus retroflexus L.
Conditions: active ingredient 500 g/ha, observed 18th to 23rd day, 0 = non-treated, 100 = complete kill

| SMILES | Growth controlling degree (%) Redroot pigweed |
| --- | --- |
| CC(C)C(c1cnccc1C(F)(F)F)N(C)C(=O)Cc1ccc(C(F)(F)F)c(F)c1 (stereo not shown) [I-62] | 80% |

Test system: corn
Assay: Test Example 2: soil surface treatment, upland pot test
Format: in vivo, Zea mays L.
Conditions: active ingredient 500 g/ha, observed 20th to 28th day
Outline: as §3

| SMILES | Growth controlling degree (%) Corn |
| --- | --- |
| CC(C)C(c1cnccc1C(F)(F)F)N(C)C(=O)Cc1ccc(C(F)(F)F)c(F)c1 (stereo not shown) [I-62] | 10% |

Test system: soybean
Assay: Test Example 1: foliage treatment, upland pot test
Format: in vivo, Glycine max Merr.
Conditions: crop, active ingredient 500 g/ha, observed 18th to 23rd day, 0 = non-treated, 100 = complete kill
Outline: as §1

| SMILES | Growth controlling degree (%) Soybean |
| --- | --- |
| CC(C)C(c1cnccc1C(F)(F)F)N(C)C(=O)Cc1ccc(C(F)(F)F)c(F)c1 (stereo not shown) [I-62] | 30% |

Test system: corn
Assay: Test Example 1: foliage treatment, upland pot test
Format: in vivo, Zea mays L.
Conditions: crop, active ingredient 500 g/ha, observed 18th to 23rd day, 0 = non-treated, 100 = complete kill
Outline: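 In this upland pot foliage test, corn plants at 2.1 to 3.2 leaf stages were sprayed by a small size sprayer. The spray was a conventionally formulated wettable powder or emulsifiable concentrate weighed to a set active ingredient amount, diluted in water at 500 L/ha, plus 0.1% (v/v) agricultural spreader. Visual assessment on days 18 to 23 gave growth controlling degree (%), where 0 equals untreated and 100 means complete kill.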

| SMILES | Growth controlling degree (%) Corn |
| --- | --- |
| CC(C)C(c1cnccc1C(F)(F)F)N(C)C(=O)Cc1ccc(C(F)(F)F)c(F)c1 (stereo not shown) [I-62] | 10% |

Test system: velvetleaf
Assay: Test Example 2: soil surface treatment, upland pot test
Format: in vivo, Abutilon theophrasti MEDIC.
Conditions: active ingredient 500 g/ha, observed 20th to 28th day
Outline: as §3

| SMILES | Growth controlling degree (%) Velvetleaf |
| --- | --- |
| CC(C)C(c1cnccc1C(F)(F)F)N(C)C(=O)Cc1ccc(C(F)(F)F)c(F)c1 (stereo not shown) [I-62] | 50% |

Test system: rice
Assay: as above
Format: in vivo, Oryza sativa L.
Conditions: active ingredient 500 g/ha, observed 20th to 28th day
Outline: as §3

| SMILES | Growth controlling degree (%) Rice |
| --- | --- |
| CC(C)C(c1cnccc1C(F)(F)F)N(C)C(=O)Cc1ccc(C(F)(F)F)c(F)c1 (stereo not shown) [I-62] | 10% |

Test system: redroot pigweed
Assay: as above
Format: in vivo, Amaranthus retroflexus L.
Conditions: active ingredient 500 g/ha, observed 20th to 28th day
Outline: as §3

| SMILES | Growth controlling degree (%) Redroot pigweed |
| --- | --- |
| CC(C)C(c1cnccc1C(F)(F)F)N(C)C(=O)Cc1ccc(C(F)(F)F)c(F)c1 (stereo not shown) [I-62] | 70% |
